The source of these data is patent publication US11780839B2, “Compounds for treating Huntington's disease” (PTC THERAPEUTICS, INC., priority 2018, dated 2023).

The assay concerns Endogenous Huntingtin Protein. Kind of assay: Endogenous Huntingtin Protein Assay (ELISA-based Meso Scale Discovery electrochemiluminescence). Type of assay: cell-based. The note with it: MSD electrochemiluminescence, Table 1. The gist of the method:
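Sandwich MSD electrochemiluminescence immunoassay. Capture used MW1 (expanded polyglutamine) or MAB2166 antibody coated at 1 μg/mL overnight at 4 °C. Samples were bound overnight at 4 °C, then a rabbit monoclonal detection antibody and SULFO-TAG anti-rabbit, each at 0.25 μg/mL, were applied for 1 h at room temperature.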
Consider `CN(c1ncc(-c2ccc(-n3cncn3)cc2O)nn1)C1CC(C)(C)NC(C)(C)C1` [Cpd 79, 2-{3-[methyl(2,2,6,6-tetramethylpiperidin-4-yl)amino]-1,2,4-triazin-6-yl}-5-(1H-1,2,4-triazol-1-yl)phenol], for which the 50% inhibitory concentration (IC50) was at most 100 nM.

Compound `COc1cc(-c2ccc(-c3cnc(N[C@H]4CC(C)(C)NC(C)(C)[C@H]4F)nn3)c(O)c2)ncn1` [Cpd 290, 2-(3-{[(3S,4S)-3-fluoro-2,2,6,6-tetramethylpiperidin-4-yl]amino}-1,2,4-triazin-6-yl)-5-(6-methoxypyrimidin-4-yl)phenol] came in with a concentration for half-maximal inhibition (IC50) of at most 100 nM.

As to `CC(=O)c1cnn(-c2ccc(-c3cnc(N(C)C4CC(C)(C)NC(C)(C)C4)nn3)c(O)c2)c1` [Cpd 68, 1-[1-(3-hydroxy-4-{3-[methyl(2,2,6,6-tetramethylpiperidin-4-yl)amino]-1,2,4-triazin-6-yl}phenyl)-1H-pyrazol-4-yl]ethan-l-one], the IC50 is at most 100 nM.

Compound `Oc1cc(-c2cn[nH]c2)ccc1-c1cnc(N2CC[C@@H](NC3CCC3)C2)nn1` [Cpd 399, 2-{3-[(3R)-3-(cyclobutylamino)pyrrolidin-1-yl]-1,2,4-triazin-6-yl}-5-(1H-pyrazol-4-yl)phenol] had an IC50 of at most 100 nM.

`CC(C)CNC1CCN(c2ncc(-c3ccc(-c4cn[nH]c4)cc3O)nn2)C1` (stereo not shown) [Cpd 297] showed an IC50 of at most 100 nM.

In turn, `CN(c1cnc(-c2ccc(-c3ccncn3)cc2O)nn1)C1CC(C)(C)NC(C)(C)C1` [Cpd 411, 2-{6-[methyl(2,2,6,6-tetramethylpiperidin-4-yl)amino]-1,2,4-triazin-3-yl}-5-(pyrimidin-4-yl)phenol] registered a concentration for half-maximal inhibition (IC50) of at most 100 nM.

As for `CN(c1ncc(-c2ccc(-c3ccc4c(cnn4C)c3)cc2O)nn1)C1CC(C)(C)NC(C)(C)C1` [Cpd 177, 5-(1-methyl-1H-indazol-5-yl)-2-{3-[methyl(2,2,6,6-tetramethylpiperidin-4-yl)amino]-1,2,4-triazin-6-yl}phenol], the concentration for half-maximal inhibition (IC50) was at most 100 nM.

Regarding `Cn1nnc(-c2ccc(-c3cnc(N4CCC(NC(C)(C)C)C4)nn3)c(O)c2)n1` (stereo not shown) [Cpd 211, 2-{3-[3-(tert-butylamino)pyrrolidin-1-yl]-1,2,4-triazin-6-yl}-5-(2-methyl-2H-tetrazol-5-yl)phenol], the IC50 is at most 100 nM.

For the compound `CN(c1ncc(-c2ccc(-c3cn(C)nc3F)cc2O)nn1)C1CC(C)(C)NC(C)(C)C1` [Cpd 18, 5-(3-fluoro-1-methyl-1H-pyrazol-4-yl)-2-{3-[methyl(2,2,6,6-tetramethylpiperidin-4-yl)amino]-1,2,4-triazin-6-yl}phenol], the IC50 was at most 100 nM.

On to `Cn1cc(-c2ccc(-c3cnc(N[C@H]4CC(C)(C)NC(C)(C)[C@H]4F)nn3)c(O)c2)cn1` [Cpd 201, 2-(3-{[(3S,4S)-3-fluoro-2,2,6,6-tetramethylpiperidin-4-yl]amino}-1,2,4-triazin-6-yl)-5-(1-methyl-1H-pyrazol-4-yl)phenol], for which the IC50 was at most 100 nM.

Turning to `Cn1cc(-c2ccc(-c3cnc(N4CC[C@H](NC5CCC5)C4)nn3)c(O)c2)cn1` [Cpd 407, 2-{3-[(3S)-3-(cyclobutylamino)pyrrolidin-1-yl]-1,2,4-triazin-6-yl}-5-(1-methyl-1H-pyrazol-4-yl)phenol], the 50% inhibitory concentration (IC50) is at most 100 nM.

Turning to `Oc1cc(-c2cn[nH]c2)ccc1-c1cnc(N2CC3CCNC3C2)nn1` (stereo not shown) [Cpd 370, 2-[3-(hexahydropyrrolo[3,4-b]pyrrol-5(1H)-yl)-1,2,4-triazin-6-yl]-5-(1H-pyrazol-4-yl)phenol], the IC50 is at most 100 nM.

As to `CN(c1ncc(-c2ccc(-c3ccc4ncccc4c3)cc2O)nn1)C1CC(C)(C)NC(C)(C)C1` [Cpd 185, 2-{3-[methyl(2,2,6,6-tetramethylpiperidin-4-yl)amino]-1,2,4-triazin-6-yl}-5-(quinolin-6-yl)phenol], the IC50 is at most 100 nM.

Compound `CN(c1cnc(-c2ccc(-c3ccccn3)cc2O)nn1)C1CC(C)(C)NC(C)(C)C1` [Cpd 393, 2-{6-[methyl(2,2,6,6-tetramethylpiperidin-4-yl)amino]-1,2,4-triazin-3-yl}-5-(pyridin-2-yl)phenol] showed a concentration for half-maximal inhibition (IC50) of at most 100 nM.

Take `CC(C)NC(C)C1CCN(c2ncc(-c3ccc(-c4cn[nH]c4)cc3O)nn2)C1` (stereo not shown) [Cpd 414, 2-[3-(3-{1-[(propan-2-yl)amino]ethyl}pyrrolidin-1-yl)-1,2,4-triazin-6-yl]-5-(1H-pyrazol-4-yl)phenol]: the IC50 is at most 100 nM.

Compound `CN(c1ncc(-c2ccc(-c3ccnc(Cl)n3)cc2O)nn1)C1CC(C)(C)NC(C)(C)C1` [Cpd 130, 5-(2-chloropyrimidin-4-yl)-2-{3-[methyl(2,2,6,6-tetramethylpiperidin-4-yl)amino]-1,2,4-triazin-6-yl}phenol] gave an IC50 of 100 to 500 nM.

As to `Cn1ncc2cc(-c3ccc(-c4cnc(N[C@H]5CC(C)(C)NC(C)(C)[C@H]5F)nn4)c(O)c3)ccc21` [Cpd 260, 2-(3-{[(3S,4S)-3-fluoro-2,2,6,6-tetramethylpiperidin-4-yl]amino}-1,2,4-triazin-6-yl)-5-(1-methyl-1H-indazol-5-yl)phenol], the IC50 was at most 100 nM.

In turn, `CN(c1ncc(-c2ccc(-c3ncns3)cc2O)nn1)C1CC(C)(C)NC(C)(C)C1` [Cpd 65, 2-{3-[methyl(2,2,6,6-tetramethylpiperidin-4-yl)amino]-1,2,4-triazin-6-yl}-5-(1,2,4-thiadiazol-5-yl)phenol] gave a half-maximal inhibitory concentration (IC50) of at most 100 nM.

As to `Cc1ncc(-c2ccc(-c3cnc(NC4CC(C)(C)NC(C)(C)C4)nn3)c(O)c2)o1` [Cpd 277, 5-(2-methyl-1,3-oxazol-5-yl)-2-{3-[(2,2,6,6-tetramethylpiperidin-4-yl)amino]1,2,4-triazin-6-yl}phenol], the IC50 was at most 100 nM.

`CC1(C)CC(Nc2ncc(-c3ccc(-c4ncccn4)cc3O)nn2)CC(C)(C)N1` [Cpd 279, 5-(pyrimidin-2-yl)-2-{3-[(2,2,6,6-tetramethylpiperidin-4-yl)amino]-1,2,4-triazin-6-yl}phenol]: the IC50 is at most 100 nM.

Consider `CC1(C)CC(Nc2ncc(-c3ccc(-n4nccn4)cc3O)nn2)CC(C)(C)N1` [Cpd 121, 2-{3-[(2,2,6,6-tetramethylpiperidin-4-yl)amino]-1,2,4-triazin-6-yl}-5-(2H-1,2,3-triazol-2-yl)phenol], for which the half-inhibitory concentration (IC50) was at most 100 nM.

`CC(C)(C)NCC1CCN(c2ncc(-c3ccc(-c4cn[nH]c4)cc3O)nn2)C1` (stereo not shown) [Cpd 390, 2-(3-{3-[(tert-butylamino)methyl]pyrrolidin-1-yl}-1,2,4-triazin-6-yl)-5-(1H-pyrazol-4-yl)phenol] returned a half-maximal inhibitory concentration (IC50) of at most 100 nM.

The compound `CN(c1ncc(-c2ccc(-c3cc(F)c4[nH]ncc4c3)cc2O)nn1)C1CC(C)(C)NC(C)(C)C1` [Cpd 383, 5-(7-fluoro-1H-indazol-5-yl)-2-{3-[methyl(2,2,6,6-tetramethylpiperidin-4-yl)amino]-1,2,4-triazin-6-yl}phenol] showed an IC50 of at most 100 nM.

For the compound `Oc1cc(-c2cn[nH]c2)ccc1-c1cnc(N2CCC(CNC3CCC3)C2)nn1` (stereo not shown) [Cpd 415, 2-(3-{3-[(cyclobutylamino)methyl]pyrrolidin-1-yl}-1,2,4-triazin-6-yl)-5-(1H-pyrazol-4-yl)phenol], the IC50 is at most 100 nM.

In turn, `CC1(C)CC(Nc2ncc(-c3ccc(-c4cn[nH]c4)cc3O)nn2)CC(C)(C)N1` [Cpd 13, 5-(1H-pyrazol-4-yl)-2-{3-[(2,2,6,6-tetramethylpiperidin-4-yl)amino]-1,2,4-triazin-6-yl}phenol] displayed a concentration for half-maximal inhibition (IC50) of at most 100 nM.

In turn, `CCC(C)(C)NC1CCN(c2ncc(-c3ccc(-c4cn[nH]c4)cc3O)nn2)C1` (stereo not shown) [Cpd 154, 2-(3-{3-[(2-methylbutan-2-yl)amino]pyrrolidin-1-yl}-1,2,4-triazin-6-yl)-5-(1H-pyrazol-4-yl)phenol] gave an IC50 of at most 100 nM.

Compound `CN(c1ncc(-c2ccc(-n3cnc(F)c3)cc2O)nn1)C1CC(C)(C)NC(C)(C)C1` [Cpd 50, 5-(4-fluoro-1H-imidazol-1-yl)-2-{3-[methyl(2,2,6,6-tetramethylpiperidin-4-yl)amino]-1,2,4-triazin-6-yl}phenol] displayed an IC50 of at most 100 nM.

`COc1cc(-c2ccc(-c3cnc(N(C)C4CC(C)(C)NC(C)(C)C4)nn3)c(O)c2)nn2ccnc12` [Cpd 304, 5-(8-methoxyimidazo[1,2-b]pyridazin-6-yl)-2-{3-[methyl(2,2,6,6-tetramethylpiperidin-4-yl)amino]-1,2,4-triazin-6-yl}phenol] showed an IC50 of at most 100 nM.

`CN(c1ncc(-c2ccc(-c3ccc(=O)[nH]c3)cc2O)nn1)C1CC(C)(C)NC(C)(C)C1` [Cpd 104, 5-(3-hydroxy-4-{3-[methyl(2,2,6,6-tetramethylpiperidin-4-yl)amino]-1,2,4-triazin-6-yl}phenyl)pyridin-2(1H)-one]: the IC50 is at most 100 nM.

`CNC1CCN(c2ncc(-c3ccc(-c4ccn(C)n4)cc3O)nn2)C1` (stereo not shown) [Cpd 296, 2-{3-[3-(methylamino)pyrrolidin-1-yl]-1,2,4-triazin-6-yl}-5-(1-methyl-1H-pyrazol-3-yl)phenol] displayed an IC50 of 1000 to 3000 nM.

Consider `COc1ncnc(-c2ccc(-c3cnc(N(C)C4CC(C)(C)NC(C)(C)C4)nn3)c(O)c2)n1` [Cpd 88, 5-(4-methoxy-1,3,5-triazin-2-yl)-2-{3-[methyl(2,2,6,6-tetramethylpiperidin-4-yl)amino]-1,2,4-triazin-6-yl}phenol], for which the half-maximal inhibitory concentration (IC50) was at most 100 nM.

On to `CC1(C)CC(Nc2ncc(-c3ccc(-c4cn5ccncc5n4)cc3O)nn2)CC(C)(C)N1` [Cpd 359, 5-(imidazo[1,2-a]pyrazin-2-yl)-2-{3-[(2,2,6,6-tetramethylpiperidin-4-yl)amino]-1,2,4-triazin-6-yl}phenol], for which the IC50 is at most 100 nM.

As to `Cn1ccc(-c2ccc(-c3cnc(N4CCC(NC(C)(C)C)C4)nn3)c(O)c2)n1` (stereo not shown) [Cpd 175, 2-{3-[3-(tert-butylamino)pyrrolidin-1-yl]-1,2,4-triazin-6-yl}-5-(1-methyl-1H-pyrazol-3-yl)phenol], the half-inhibitory concentration (IC50) fell in the range of 1000 to 3000 nM.

Turning to `Cc1ncc(-c2ccc(-c3cnc(N(C)C4CC(C)(C)NC(C)(C)C4)nn3)c(O)c2)s1` [Cpd 64, 2-{3-[methyl(2,2,6,6-tetramethylpiperidin-4-yl)amino]-1,2,4-triazin-6-yl}-5-(2-methyl-1,3-thiazol-5-yl)phenol], the half-maximal inhibitory concentration (IC50) was at most 100 nM.
